Experimental findings from PMC8587863, “Discovery of Novel Delta Opioid Receptor (DOR) Inverse Agonist and Irreversible (Non-Competitive) Antagonists” (Molecules, 2021) are described below.

Where only a bound is given, the exact number is not on record here.

One may read the Ki as a measure of affinity in units of concentration, obtained from inhibition or displacement. Higher therefore signals lower affinity. What is called EC50 is the midpoint of the concentration-response curve. Read a low EC50 as an effect from little substance.

Assay [1] addresses T1, human DOR (delta opioid receptor) (Homo sapiens, UniProt P41143).
T1 construct: gene OPRD1; full-length receptor expressed in CHO-K1 cells
The assay can be described thus: […]-GTPgammaS coupling, membranes. In kind it is biochemical. The note with it: antagonist mode against SNC80 curve; 30 °C, 1 h, 40 uM GDP; proposed covalent / irreversible.

The target of assay [2] is T2, human kappa opioid receptor (KOR) (Homo sapiens, UniProt P41145).
T2 construct: gene OPRK1; full-length receptor expressed in CHO cells; membranes
The assay can be described thus: competition radioligand binding, 3H-diprenorphine, membranes.

Assay [3] addresses T1, human DOR (delta opioid receptor). The assay can be described thus: cAMP accumulation, live DOR-CHO cells. The assay is classed as cell-based. For orientation: Changes in cAMP serve as a functional read-out for many G protein-coupled receptors.
Assay [4] has as its target T3, human mu opioid receptor (MOR) (Homo sapiens, UniProt P35372).
T3 construct: gene OPRM1; full-length receptor expressed in CHO cells; membranes
The assay can be described thus: competition radioligand binding, 3H-diprenorphine, membranes. Conditions: room temperature, 1 h, one-site fit; unreliable.

The target in assay [5] is T1, human DOR (delta opioid receptor). The assay is described as above.

As to `Oc1ccc2c3c1O[C@H]1c4[nH]c5ccc(/C=C/c6ccccn6)cc5c4C[C@@]4(O)[C@@H](C2)N(CC2CC2)CC[C@]314` [SRI-9342, (4bS,8R,8aS,14bR)-7-(Cyclopropylmethyl)-11-((E)-2-(pyridin-2-yl)vinyl)-5,6,7,8,14,14b-hexahydro-4,8-methanobenzofuro [2,3-a]pyrido[4,3-b]carbazole-1,8a(9H)-diol], the “% SNC80 efficacy (EMAX) at 1 nM” value in assay [1] is 84%.
Regarding `O=C(C1CC1)N1CC[C@]23c4c5ccc(O)c4O[C@H]2c2ncc(-c4ccc(Cl)cc4)cc2C[C@@]3(O)[C@H]1C5` [SRI-45128, ((4bS,8R,8aS,13bR)-11-(4-Chlorophenyl)-1,8a-dihydroxy-5,6,8,8a,9,13b-hexahydro-7H-4,8-methanobenzofuro[3,2-h]pyrido[3,4-g]quinolin-7-yl)(cyclopropyl)methanone], the inhibitory constant (Ki) in assay [2] stood at 2500 ± 510 nM; in assay [5] it was 24 ± 2 nM. Besides, the midpoint of the response in assay [3], the EC50, lay at 770 nM. Moreover, the KI in assay [4] is reported as > 3,333 nM.
The corresponding values for `O=C(C1CC1)N1CC[C@]23c4c5ccc(O)c4O[C@H]2c2[nH]c4ccccc4c2C[C@@]3(O)[C@H]1C5` [SYK-623, Cyclopropyl((4bS,8R,8aS,14bR)-1,8a-dihydroxy-5,6,8a,9,14,14b-hexahydro-4,8-methanobenzofuro[2,3−a]pyrido [4,3−b]carbazol-7(8H)-yl)methanone] are 2000 ± 290 nM, 11 ± 1 nM, 265 nM and > 3,333 nM.
